# The supplement of paper PMC11061612
# Experiments:
# [1] = test system: A673 (Ewing's Sarcoma); assay: Bliss excess, mean over the matrix (fraction); higher = more synergy
# Summary of the method: (§1)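 Bliss excess equals the observed combination effect minus the expected value EA + EB − EA·EB, where EA and EB are the effects of each agent alone. Combination Emax is the second-highest inhibition within the matrix. Inhibition was scaled from CellTiter-Glo 2.0 luminescence, with 0 set by vehicle wells and 1 by blank wells, after 72 hours of two-drug dosing of cells plated in 1536-well plates.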
# [2] = test system: BE-13 (T-Lymphoblastic Leukemia); assay: as above
# Summary of the method: as §1
# [3] = test system: CAL-72 (Osteosarcoma); assay: as above
# Summary of the method: as §1
# [4] = test system: ESS-1 (Other Solid Carcinomas); assay: as above
# Summary of the method: as §1
# [5] = test system: EW-11 (Ewing's Sarcoma); assay: as above
# Summary of the method: as §1
# [6] = test system: GAMG (Glioblastoma); assay: as above
# Summary of the method: as §1
# [7] = test system: HH (T-Cell Non-Hodgkin's Lymphoma); assay: as above
# Summary of the method: as §1
# [8] = test system: HuCCT1 (Biliary Tract Carcinoma); assay: as above
# Summary of the method: as §1
# [9] = test system: KS-1 (Glioblastoma); assay: as above
# Summary of the method: as §1
# [10] = test system: KYAE-1 (Esophageal Adenocarcinoma); assay: as above
# Summary of the method: as §1
# [11] = test system: LNZTA3WT4 (Low Grade Glioma); assay: as above
# Summary of the method: as §1
# [12] = test system: LOXIMVI (Melanoma); assay: as above
# Summary of the method: as §1
# [13] = test system: LS-123 (Colorectal Carcinoma); assay: as above
# Summary of the method: as §1
# [14] = test system: MPP-89 (Mesothelioma); assay: as above
# Summary of the method: as §1
# [15] = test system: NCI-H524 (Small Cell Lung Carcinoma); assay: as above
# Summary of the method: as §1
# [16] = test system: OVCAR-5 (Ovarian Carcinoma); assay: as above
# Summary of the method: as §1
# [17] = test system: SAS (Oral Cavity Carcinoma); assay: as above
# Summary of the method: as §1
# [18] = test system: SNU-16 (Gastric Carcinoma); assay: as above
# Summary of the method: as §1
# [19] = test system: SNU-449 (Hepatocellular Carcinoma); assay: as above
# Summary of the method: as §1
# [20] = test system: SW1710 (Bladder Carcinoma); assay: as above
# Summary of the method: as §1
# [21] = test system: TGBC1TKB (Biliary Tract Carcinoma); assay: as above
# Summary of the method: as §1
# [22] = test system: WSU-NHL (B-Cell Non-Hodgkin's Lymphoma); assay: as above
# Summary of the method: as §1
# [23] = test system: YAPC (Pancreatic Carcinoma); assay: as above
# Summary of the method: as §1
# [24] = test system: A673 (Ewing's Sarcoma); assay: combination Emax (second highest fraction inhibited in the dose matrix, 72 h); higher = more inhibition; extreme values may be limits of the assay
# Summary of the method: as §1
# [25] = test system: BE-13 (T-Lymphoblastic Leukemia); assay: as above
# Summary of the method: as §1
# [26] = test system: CAL-72 (Osteosarcoma); assay: as above
# Summary of the method: as §1
# [27] = test system: ESS-1 (Other Solid Carcinomas); assay: as above
# Summary of the method: as §1
# [28] = test system: EW-11 (Ewing's Sarcoma); assay: as above
# Summary of the method: as §1
# [29] = test system: GAMG (Glioblastoma); assay: as above
# Summary of the method: as §1
# [30] = test system: HH (T-Cell Non-Hodgkin's Lymphoma); assay: as above
# Summary of the method: as §1
# [31] = test system: HuCCT1 (Biliary Tract Carcinoma); assay: as above
# Summary of the method: as §1
# [32] = test system: KS-1 (Glioblastoma); assay: as above
# Summary of the method: as §1
# [33] = test system: KYAE-1 (Esophageal Adenocarcinoma); assay: as above
# Summary of the method: as §1
# [34] = test system: LNZTA3WT4 (Low Grade Glioma); assay: as above
# Summary of the method: as §1
# [35] = test system: LOXIMVI (Melanoma); assay: as above
# Summary of the method: as §1
# [36] = test system: LS-123 (Colorectal Carcinoma); assay: as above
# Summary of the method: as §1
# [37] = test system: MPP-89 (Mesothelioma); assay: as above
# Summary of the method: as §1
# [38] = test system: NCI-H524 (Small Cell Lung Carcinoma); assay: as above
# Summary of the method: as §1
# [39] = test system: OVCAR-5 (Ovarian Carcinoma); assay: as above
# Summary of the method: as §1
# [40] = test system: SAS (Oral Cavity Carcinoma); assay: as above
# Summary of the method: as §1
# [41] = test system: SNU-16 (Gastric Carcinoma); assay: as above
# Summary of the method: as §1
# [42] = test system: SNU-449 (Hepatocellular Carcinoma); assay: as above
# Summary of the method: as §1
# [43] = test system: SW1710 (Bladder Carcinoma); assay: as above
# Summary of the method: as §1
# [44] = test system: TGBC1TKB (Biliary Tract Carcinoma); assay: as above
# Summary of the method: as §1
# [45] = test system: WSU-NHL (B-Cell Non-Hodgkin's Lymphoma); assay: as above
# Summary of the method: as §1
# [46] = test system: YAPC (Pancreatic Carcinoma); assay: as above
# Summary of the method: as §1
compound,measurement,setting,value
"C=CCn1c(=O)c2cnc(Nc3ccc(N4CCN(C)CC4)cc3)nc2n1-c1cccc(C(C)(C)O)n1 [AZD1775] + CCc1c2c(nc3ccc(O)cc13)-c1cc3c(c(=O)n1C2)COC(=O)[C@]3(O)CC [SN-38] (first compound max 1 µM, partner max 0.3 µM)",Bliss excess,[1],-0.0188
same,Bliss excess,[2],-0.0186
same,Bliss excess,[3],0.017
same,Bliss excess,[4],-0.0011
same,Bliss excess,[5],-0.113
same,Bliss excess,[6],0.001
same,Bliss excess,[7],-0.0696
same,Bliss excess,[8],-0.0281
same,Bliss excess,[9],-0.0389
same,Bliss excess,[10],-0.0013
same,Bliss excess,[11],-0.0414
same,Bliss excess,[12],-0.0862
same,Bliss excess,[13],-0.0581
same,Bliss excess,[14],0.0163
same,Bliss excess,[15],-0.0355
same,Bliss excess,[16],-0.0215
same,Bliss excess,[17],0.0334
same,Bliss excess,[18],-0.0475
same,Bliss excess,[19],-0.0298
same,Bliss excess,[20],0.0053
same,Bliss excess,[21],-0.0491
same,Bliss excess,[22],-0.0306
same,Bliss excess,[23],-0.0599
same,combination Emax,[24],0.973
same,combination Emax,[25],1
same,combination Emax,[26],0.838
same,combination Emax,[27],1
same,combination Emax,[28],0.723
same,combination Emax,[29],0.916
same,combination Emax,[30],0.567
same,combination Emax,[31],0.809
same,combination Emax,[32],0.52
same,combination Emax,[33],0.267
same,combination Emax,[34],0.802
same,combination Emax,[35],0.863
same,combination Emax,[36],0.828
same,combination Emax,[37],0.769
same,combination Emax,[38],0.76
same,combination Emax,[39],0.77
same,combination Emax,[40],1
same,combination Emax,[41],0.989
same,combination Emax,[42],0.61
same,combination Emax,[43],0.533
same,combination Emax,[44],0.426
same,combination Emax,[45],0.999
same,combination Emax,[46],0.722
"N#Cc1cnc(Nc2cc(NC[C@H]3CNCCO3)c(C(F)(F)F)cn2)cn1 [SRA737] + O=c1[nH]cc(F)c(=O)[nH]1 [5-Fluorouracil] (first compound max 10 µM, 7x7, partner max 20 µM)",Bliss excess,[1],0.0354
same,Bliss excess,[2],-0.0334
same,Bliss excess,[3],0.0294
same,Bliss excess,[4],-0.0297
same,Bliss excess,[5],-0.0246
same,Bliss excess,[6],-0.0226
same,Bliss excess,[7],0.0123
same,Bliss excess,[8],0.102
same,Bliss excess,[9],-0.0464
same,Bliss excess,[10],0.0202
same,Bliss excess,[11],-0.0325
same,Bliss excess,[12],-0.0241
same,Bliss excess,[13],-0.0135
same,Bliss excess,[14],0.0355
same,Bliss excess,[15],0.0593
same,Bliss excess,[16],-0.0535
same,Bliss excess,[17],-0.0104
same,Bliss excess,[18],0.0632
same,Bliss excess,[19],-0.0175
same,Bliss excess,[20],-0.0212
same,Bliss excess,[21],-0.0482
same,Bliss excess,[22],0.0005
same,Bliss excess,[23],0.0062
same,combination Emax,[24],0.402
same,combination Emax,[25],0.863
same,combination Emax,[26],0.51
same,combination Emax,[27],0.927
same,combination Emax,[28],0.5
same,combination Emax,[29],0.315
same,combination Emax,[30],0.188
same,combination Emax,[31],0.839
same,combination Emax,[32],0.281
same,combination Emax,[33],0.23
same,combination Emax,[34],0.815
same,combination Emax,[35],0.41
same,combination Emax,[36],0.414
same,combination Emax,[37],0.424
same,combination Emax,[38],0.935
same,combination Emax,[39],0.538
same,combination Emax,[40],0.456
same,combination Emax,[41],0.961
same,combination Emax,[42],0.293
same,combination Emax,[43],0.217
same,combination Emax,[44],0.0891
same,combination Emax,[45],0.965
same,combination Emax,[46],0.406
